Measured values: US20180042891A1, “Cancer Cell Apoptosis” (e-Therapeutics plc, priority 2009, published 2018)

How the values were obtained:
A375 melanoma cells = experiment: Caspase 3/7 apoptosis and CellTiter-Blue cell viability assay, 24 hour; type: cell-based; conditions: A375, 24 hours incubation
Procedure: (§1) Assay was performed at a 24 hour timepoint on 3 melanoma lines (A375, G-361, WM266-4) 2 breast cancer lines (MCF7, MDA-MB-231), fibroblast (46BR.1G1), colon cancer (HCT116), prostate cancer (PC-3), glioblastoma (U373) and non-small cell lung cancer (NSCLC) (DMS-114)
(§2) The above cell lines were maintained in RPMI 1640 culture medium (Sigma, UK) containing 10% (v/v) heat inactivated foetal bovine serum (Sigma, UK) and 2 mM […] at 37° C. in 5% humidified CO2. Cells were harvested, washed, re-suspended into growth medium and counted (Beckman-Coulter Vi-CELL XR). Cells were plated onto the middle 240 wells of 384 tissue culture plates at 1.6×lO^5 to 2.4×lO^5 cells/ml in 12.5 μl/well aliquots. 50 μl of growth media was aliquoted into the outer wells. 2 plates were prepared per cell line. Plates were incubated overnight at 37° C., in 5% humidified CO2.
(§3) Dexanabinol was prepared in growth medium at 2 times the final assay concentration at 125, 31.3, 7.81, 2.00, 0.49, 0.12, 0.031 and O.OO8 μM (DMSO concentration was kept constant across the dilution range at 0.5%).
(§4) Cisplatin was used as a positive control. The final assays concentrations were 10, 2.5, 0.63, 0.156, 0.039, 0.010, 0.002 and 0.0006 μg/ml. […] 12.5 μl of growth media was added to the media control wells. The plates were incubated for 24 hours at 37° C., in 5% humidified CO2.
(§5) Caspase 3/7 levels were assessed by Apo-ONE® Homogeneous Caspase-3/7 assay kit. Fluorescence was measured using a FlexStation® II^384 plate reader at 1, 2, 3 and 4 hours after addition of the caspase substrate. The 4 hour readings were used for analysis.
(§6) The cell viability assay was performed in parallel on the same plate for each line using CellTiter-Blue® (Promega) reagent. Briefly, 25 μl of CellTiter-Blue® (Promega) reagent was added to each well. The plates were shaken for 1 minute at 500 rpm and then incubated at 37° C., 5% CO2 for 4 hours.

DMS-114 NSCLC cells = experiment: as above; type: cell-based; conditions: DMS-114, 24 hours incubation
Procedure: as §1, §2, §3, §4, §5, §6

[1] = tested on: HCT116 colon cancer cells; experiment: as above; type: cell-based; conditions: HCT116, 24 hours incubation
Procedure: as §1, §2, §3, §4, §5, §6

MCF7 breast cancer cells = experiment: as above; type: cell-based; conditions: MCF7, 24 hours incubation
Procedure: as §1, §2, §3, §4, §5, §6

U373 glioblastoma cells = experiment: as above; type: cell-based; conditions: U373, 24 hours incubation
Procedure: as §1, §2, §3, §4, §5, §6

[2] = tested on: 46Br.1G1 fibroblast cells; experiment: as above; type: cell-based, human; conditions: 46Br.1G1, 24 hours incubation
Procedure: as §1, §2, §3, §4, §5, §6

G-361 melanoma cells = experiment: as above; type: cell-based, human; conditions: G-361, 24 hours incubation
Procedure: as §1, §2, §3, §4, §5, §6

[3] = tested on: MDA-MB-231 breast cancer cells; experiment: as above; type: cell-based, human; conditions: MDA-MB-231, 24 hours incubation
Procedure: as §1, §2, §3, §4, §5, §6

[4] = tested on: PC-3 prostate cancer cells; experiment: as above; type: cell-based, human; conditions: PC-3, 24 hours incubation
Procedure: as §1, §2, §3, §4, §5, §6

WM266-4 melanoma cells = experiment: as above; type: cell-based, human; conditions: WM266-4, 24 hours incubation
Procedure: as §1, §2, §3, §4, §5, §6

[5] = CellTiter-Blue cell viability (cytotoxicity), whole panel of cell lines; type: cell-based; conditions: human; at the highest concentration; read-out: loss in cell viability
Procedure: as §1, §2, §3
(§7) The final assays concentrations were 10, 2.5, 0.63, 0.156, 0.039, 0.010, 0.002 and 0.0006 μg/ml. […] 12.5 μl of growth media was added to the media control wells. The plates were incubated for 24 hours at 37° C., in 5% humidified CO2.
as §6

[6] = tested on: panel of cancer cell lines and a human fibroblast line; experiment: as above; type: cell-based
Procedure: as §1, §2, §3, §7, §6

[7] = tested on: panel of cancer cell lines and a human fibroblast line; experiment: Apo-ONE Caspase-3/7 apoptosis assay, whole panel of cell lines; type: cell-based
Procedure: as §1, §2, §3
Cisplatin was used as a positive control. […]
as §5

CDK2 = CDK2 (Homo sapiens, UniProt P24941); experiment: Direct assay against CDK2; type: biochemical; conditions: when directly assayed
CDK5 = CDK5 (Homo sapiens, UniProt Q00535); experiment: Direct assay against CDK5; type: biochemical; conditions: when directly assayed
Aspc-1 = tested on: Aspc-1; set-up: dose or concentration left out as unconfirmed; conditions: cited from earlier work
Panc-1 cells = tested on: Panc-1 cells; set-up: dose or concentration left out as unconfirmed; conditions: at this same concentration; cited from earlier work
[8] = tested on: melanoma cell lines (A375, Malme-3M, UACC62); conditions: previous studies, WO '700; read-out: decreased growth, IC50 value; cited from earlier work

Chain of CDK5 (Q00535 whole entry, species assumed): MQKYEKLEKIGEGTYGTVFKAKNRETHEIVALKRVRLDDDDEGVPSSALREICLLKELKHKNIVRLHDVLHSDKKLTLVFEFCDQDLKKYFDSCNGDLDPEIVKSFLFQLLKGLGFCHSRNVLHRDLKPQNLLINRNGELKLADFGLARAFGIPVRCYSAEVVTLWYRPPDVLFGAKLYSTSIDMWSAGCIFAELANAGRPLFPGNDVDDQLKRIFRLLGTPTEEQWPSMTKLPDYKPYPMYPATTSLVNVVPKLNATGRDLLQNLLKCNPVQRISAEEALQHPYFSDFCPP
Chain of CDK5 (Q15078 99-307 partner limits assumed, species assumed): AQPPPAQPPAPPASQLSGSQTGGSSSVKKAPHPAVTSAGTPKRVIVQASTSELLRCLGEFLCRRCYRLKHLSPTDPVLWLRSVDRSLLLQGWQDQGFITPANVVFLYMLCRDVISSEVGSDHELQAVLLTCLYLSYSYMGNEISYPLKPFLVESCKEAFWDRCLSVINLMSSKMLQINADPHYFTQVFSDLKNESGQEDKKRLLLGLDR

N.N.[Cl][Pt][Cl] [Cisplatin, reference compound]
IC50 (A375 melanoma cells): 21.8 µM
Rank: apoptosis induction and decrease in proliferation (A375 melanoma cells): ** (moderate apoptosis induction and decrease in proliferation (35-70%))
IC50 (DMS-114 NSCLC cells): ~40.2 µM
Rank: apoptosis induction and decrease in proliferation (DMS-114 NSCLC cells): * (weak apoptosis induction and decrease in proliferation (<35%))
IC50 [1]: 29.5 µM
Rank: apoptosis induction and decrease in proliferation [1]: ** (moderate apoptosis induction and decrease in proliferation (35-70%))
IC50 (MCF7 breast cancer cells): 40.6 µM
Rank: apoptosis induction and decrease in proliferation (MCF7 breast cancer cells): ** (moderate apoptosis induction and decrease in proliferation (35-70%))
IC50 (U373 glioblastoma cells): > 33 µM
Rank: apoptosis induction and decrease in proliferation (U373 glioblastoma cells): * (weak apoptosis induction and decrease in proliferation (<35%))
IC50 [2]: 21.5 µM
Rank: apoptosis induction and decrease in proliferation [2]: ** (moderate apoptosis induction and decrease in proliferation (35-70%))
IC50 (G-361 melanoma cells): 18 µM
Rank: apoptosis induction and decrease in proliferation (G-361 melanoma cells): ** (moderate apoptosis induction and decrease in proliferation (35-70%))
IC50 [3]: > 33 µM
Rank: apoptosis induction and decrease in proliferation [3]: * (weak apoptosis induction and decrease in proliferation (<35%))
IC50 [4]: ~58 µM
Rank: apoptosis induction and decrease in proliferation [4]: * (weak apoptosis induction and decrease in proliferation (<35%))
IC50 (WM266-4 melanoma cells): 62 µM
Rank: apoptosis induction and decrease in proliferation (WM266-4 melanoma cells): * (weak apoptosis induction and decrease in proliferation (<35%))

CCCCCCC(C)(C)c1cc(O)c2c(c1)OC(C)(C)[C@H]1CC=C(CO)C[C@H]21 [Dexanabinol, 1, 1 dimethyl heptyl-(3S,4S)-7-hydroxy-Δ^6-tetrahydrocannabinol]
Rank: apoptosis induction and decrease in proliferation (A375 melanoma cells): ** (moderate apoptosis induction and decrease in proliferation (35-70%))
IC50 (A375 melanoma cells; Homo sapiens, A-375): 19.2 µM
Rank: apoptosis induction and decrease in proliferation (DMS-114 NSCLC cells): * (weak apoptosis induction and decrease in proliferation (<35%))
IC50 (DMS-114 NSCLC cells; Homo sapiens): 10 to 50 µM
Rank: apoptosis induction and decrease in proliferation [1]: *** (good apoptosis induction and decrease in proliferation (>70%))
IC50 ([1]; Homo sapiens, HCT-116): 22.3 µM
IC50 (MCF7 breast cancer cells; Homo sapiens): 16.2 µM
Rank: apoptosis induction and decrease in proliferation (MCF7 breast cancer cells): *** (good apoptosis induction and decrease in proliferation (>70%))
IC50 (U373 glioblastoma cells; Homo sapiens, U373 MG): 10 to 50 µM
Rank: apoptosis induction and decrease in proliferation (U373 glioblastoma cells): * (weak apoptosis induction and decrease in proliferation (<35%))
Rank: apoptosis induction and decrease in proliferation [2]: *** (good apoptosis induction and decrease in proliferation (>70%))
IC50 ([2]; Homo sapiens, Fibroblast): 23.1 µM
Rank: apoptosis induction and decrease in proliferation (G-361 melanoma cells): *** (good apoptosis induction and decrease in proliferation (>70%))
IC50 (G-361 melanoma cells; Homo sapiens): 11 µM
IC50 ([3]; Homo sapiens): 10 to 50 µM
Rank: apoptosis induction and decrease in proliferation [3]: ** (moderate apoptosis induction and decrease in proliferation (35-70%))
IC50 ([4]; Homo sapiens): 19.9 µM
Rank: apoptosis induction and decrease in proliferation [4]: *** (good apoptosis induction and decrease in proliferation (>70%))
IC50 (WM266-4 melanoma cells; Homo sapiens, WM 266-4): 20.9 µM
Rank: apoptosis induction and decrease in proliferation (WM266-4 melanoma cells): ** (moderate apoptosis induction and decrease in proliferation (35-70%))
cytotoxicity at 24 h, 62.5 µM [5]: 100%
IC50 ([6]; Homo sapiens, Fibroblast, read-out: cytotoxic response, IC50 values): 10 to 25 µM
concentration giving dose-dependent decrease in cell viability ([6]; all cell lines): > 10^−5 M
concentrations at which pro-apoptotic effect and effect on cell number were shown [7]: ≥ 10 µM
concentration of peak response in apoptosis ([7]; dropped at the highest concentration of 10 μM): 2.5 µM
direct activity against CDK2 (CDK2): no significant direct activity
direct activity against CDK5 (CDK5): no significant direct activity
Aspc-1 proliferation (Aspc-1): not affected
Panc-1 cells proliferation inhibited (Panc-1 cells): 26%
IC50 [8]: 10 to 20 µM
